Measured values as given in PubChem BioAssay (NCI).
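Following 48 hours of exposure in 96-well plates, responses at five concentrations were used to interpolate endpoints linearly. At the GI50, growth is halved. At the TGI there is no net growth.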

Experiments:
Experiment in all cases: growth of human tumour cells (NCI), 48 h
HL-60(TB) leukemia = system: HL-60(TB) leukemia
HCC-2998 colon = system: HCC-2998 colon
NCI-H226 lung = system: NCI-H226 lung
SF-539 CNS = system: SF-539 CNS
HCT-116 colon = system: HCT-116 colon
SF-268 CNS = system: SF-268 CNS
MDA-MB-435 = system: MDA-MB-435
HOP-92 NSCLC = system: HOP-92 NSCLC
OVCAR-5 ovarian = system: OVCAR-5 ovarian
M14 melanoma = system: M14 melanoma
NCI-H23 lung = system: NCI-H23 lung
SNB-75 CNS = system: SNB-75 CNS
SNB-19 CNS = system: SNB-19 CNS
HOP-62 NSCLC = system: HOP-62 NSCLC
SN12C renal = system: SN12C renal
TK-10 renal = system: TK-10 renal
NCI-H522 lung = system: NCI-H522 lung
A549 NSCLC = system: A549 NSCLC
MOLT-4 leukemia = system: MOLT-4 leukemia
SK-MEL-28 melanoma = system: SK-MEL-28 melanoma
SK-OV-3 ovarian = system: SK-OV-3 ovarian
COLO 205 colon = system: COLO 205 colon
786-0 renal = system: 786-0 renal
BT-549 breast = system: BT-549 breast
SR leukemia = system: SR leukemia
DU-145 prostate = system: DU-145 prostate
MALME-3M melanoma = system: MALME-3M melanoma
NCI/ADR-RES ovarian = system: NCI/ADR-RES ovarian
EKVX NSCLC = system: EKVX NSCLC
UO-31 renal = system: UO-31 renal
SW-620 colon = system: SW-620 colon
OVCAR-8 ovarian = system: OVCAR-8 ovarian
SK-MEL-5 melanoma = system: SK-MEL-5 melanoma
MCF7 breast = system: MCF7 breast
IGROV1 ovarian = system: IGROV1 ovarian
MDA-MB-231 breast = system: MDA-MB-231 breast
RPMI-8226 leukemia = system: RPMI-8226 leukemia
KM12 colon = system: KM12 colon
SF-295 CNS = system: SF-295 CNS
HS 578T breast = system: HS 578T breast
CAKI-1 renal = system: CAKI-1 renal
HCT-15 colon = system: HCT-15 colon
T-47D breast = system: T-47D breast
UACC-257 melanoma = system: UACC-257 melanoma
RXF 393 renal = system: RXF 393 renal
NCI-H460 lung = system: NCI-H460 lung
U251 CNS = system: U251 CNS
K-562 leukemia = system: K-562 leukemia
OVCAR-3 ovarian = system: OVCAR-3 ovarian
PC-3 prostate = system: PC-3 prostate
HT29 colon = system: HT29 colon
UACC-62 melanoma = system: UACC-62 melanoma
SK-MEL-2 melanoma = system: SK-MEL-2 melanoma
LOX IMVI melanoma = system: LOX IMVI melanoma
OVCAR-4 ovarian = system: OVCAR-4 ovarian
ACHN renal = system: ACHN renal
CCRF-CEM leukemia = system: CCRF-CEM leukemia
A498 renal = system: A498 renal

SMILES: CSc1nc2ccc(C)cc2cc1/C=C1/C=C(c2ccccc2)NC1=O
- GI50 (HL-60(TB) leukemia): > 100 µM
- TGI (HL-60(TB) leukemia): > 100 µM
- GI50 (HCC-2998 colon): > 100 µM
- TGI (HCC-2998 colon): > 100 µM
- GI50 (NCI-H226 lung): 7.3 µM
- TGI (NCI-H226 lung): > 100 µM
- GI50 (SF-539 CNS): 2.35 µM
- TGI (SF-539 CNS): 9.66 µM
- GI50 (HCT-116 colon): 0.731 µM
- TGI (HCT-116 colon): 4.07 µM
- GI50 (SF-268 CNS): 3.16 µM
- TGI (SF-268 CNS): 48 µM
- GI50 (MDA-MB-435): 0.718 µM
- TGI (MDA-MB-435): 21 µM
- GI50 (HOP-92 NSCLC): 2.85 µM
- TGI (HOP-92 NSCLC): 13.4 µM
- GI50 (OVCAR-5 ovarian): 19.3 µM
- TGI (OVCAR-5 ovarian): > 100 µM
- GI50 (M14 melanoma): 5.42 µM
- TGI (M14 melanoma): 78 µM
- GI50 (NCI-H23 lung): 10 µM
- TGI (NCI-H23 lung): > 100 µM
- GI50 (SNB-75 CNS): 2.81 µM
- TGI (SNB-75 CNS): 14.8 µM
- GI50 (SNB-19 CNS): 4.6 µM
- TGI (SNB-19 CNS): 33.5 µM
- GI50 (HOP-62 NSCLC): 2.42 µM
- TGI (HOP-62 NSCLC): 11.7 µM
- GI50 (SN12C renal): 4.53 µM
- TGI (SN12C renal): 32.3 µM
- GI50 (TK-10 renal): 2.63 µM
- TGI (TK-10 renal): 8.46 µM
- GI50 (NCI-H522 lung): 3.53 µM
- TGI (NCI-H522 lung): 42.5 µM
- GI50 (A549 NSCLC): 3.54 µM
- TGI (A549 NSCLC): 30.7 µM
- GI50 (MOLT-4 leukemia): 15.5 µM
- TGI (MOLT-4 leukemia): > 100 µM
- GI50 (SK-MEL-28 melanoma): 23.1 µM
- TGI (SK-MEL-28 melanoma): > 100 µM
- GI50 (SK-OV-3 ovarian): 4.83 µM
- TGI (SK-OV-3 ovarian): > 100 µM
- GI50 (COLO 205 colon): 5.9 µM
- TGI (COLO 205 colon): > 100 µM
- GI50 (786-0 renal): 2 µM
- TGI (786-0 renal): 5.89 µM
- GI50 (BT-549 breast): 3.94 µM
- TGI (BT-549 breast): 22.9 µM
- GI50 (SR leukemia): 0.598 µM
- TGI (SR leukemia): > 100 µM
- GI50 (DU-145 prostate): 6.72 µM
- TGI (DU-145 prostate): 96.1 µM
- GI50 (MALME-3M melanoma): 3.08 µM
- TGI (MALME-3M melanoma): 25.9 µM
- GI50 (NCI/ADR-RES ovarian): 3.99 µM
- TGI (NCI/ADR-RES ovarian): 87.5 µM
- GI50 (EKVX NSCLC): 13.1 µM
- TGI (EKVX NSCLC): > 100 µM
- GI50 (UO-31 renal): 2.58 µM
- TGI (UO-31 renal): 12.4 µM
- GI50 (SW-620 colon): 2.62 µM
- TGI (SW-620 colon): 92.1 µM
- GI50 (OVCAR-8 ovarian): 3.6 µM
- TGI (OVCAR-8 ovarian): 23.2 µM
- GI50 (SK-MEL-5 melanoma): 21.3 µM
- TGI (SK-MEL-5 melanoma): > 100 µM
- GI50 (MCF7 breast): 12.5 µM
- TGI (MCF7 breast): > 100 µM
- GI50 (IGROV1 ovarian): 2.71 µM
- TGI (IGROV1 ovarian): 24.1 µM
- GI50 (MDA-MB-231 breast): 4.42 µM
- TGI (MDA-MB-231 breast): 36.6 µM
- GI50 (RPMI-8226 leukemia): 8.9 µM
- TGI (RPMI-8226 leukemia): > 100 µM
- GI50 (KM12 colon): 3.13 µM
- TGI (KM12 colon): 82.9 µM
- GI50 (SF-295 CNS): 1.44 µM
- TGI (SF-295 CNS): 15 µM
- GI50 (HS 578T breast): 1.92 µM
- TGI (HS 578T breast): 7.46 µM
- GI50 (CAKI-1 renal): 1.21 µM
- TGI (CAKI-1 renal): 10.9 µM
- GI50 (HCT-15 colon): 14 µM
- TGI (HCT-15 colon): > 100 µM
- GI50 (T-47D breast): 1.66 µM
- TGI (T-47D breast): 24.5 µM
- GI50 (UACC-257 melanoma): 94.6 µM
- TGI (UACC-257 melanoma): > 100 µM
- GI50 (RXF 393 renal): 3.06 µM
- GI50 (NCI-H460 lung): 0.646 µM
- TGI (NCI-H460 lung): 10.9 µM
- GI50 (U251 CNS): 0.602 µM
- TGI (U251 CNS): 3.68 µM
- GI50 (K-562 leukemia): 8.83 µM
- TGI (K-562 leukemia): > 100 µM
- GI50 (OVCAR-3 ovarian): 1.78 µM
- TGI (OVCAR-3 ovarian): 15.9 µM
- GI50 (PC-3 prostate): 5.32 µM
- TGI (PC-3 prostate): > 100 µM
- GI50 (HT29 colon): 3.44 µM
- TGI (HT29 colon): > 100 µM
- GI50 (UACC-62 melanoma): 10.8 µM
- TGI (UACC-62 melanoma): 48.2 µM
- GI50 (SK-MEL-2 melanoma): 6.31 µM
- TGI (SK-MEL-2 melanoma): 30.4 µM
- GI50 (LOX IMVI melanoma): 6.33 µM
- TGI (LOX IMVI melanoma): 33.2 µM
- GI50 (OVCAR-4 ovarian): 0.296 µM
- TGI (OVCAR-4 ovarian): 1.03 µM
- GI50 (ACHN renal): 1.04 µM
- TGI (ACHN renal): 5.54 µM
- GI50 (CCRF-CEM leukemia): 26.4 µM
- TGI (CCRF-CEM leukemia): > 100 µM

SMILES: CCOC(=O)C1=C(C)N(Cc2ccccc2)C2(O)C(OC)CC(=O)C3C(=O)N(c4ccccc4)C(=O)C132 (centres undefined)
- TGI (HL-60(TB) leukemia): > 100 µM
- TGI (HCC-2998 colon): 53.5 µM
- TGI (NCI-H226 lung): 37.5 µM
- TGI (SF-539 CNS): 48.6 µM
- TGI (HCT-116 colon): > 100 µM
- TGI (SF-268 CNS): > 100 µM
- TGI (MDA-MB-435): > 100 µM
- TGI (HOP-92 NSCLC): 44.5 µM
- TGI (OVCAR-5 ovarian): > 100 µM
- TGI (M14 melanoma): > 100 µM
- TGI (NCI-H23 lung): > 100 µM
- TGI (SNB-19 CNS): 37.6 µM
- TGI (HOP-62 NSCLC): > 100 µM
- TGI (SN12C renal): 41.5 µM
- TGI (TK-10 renal): 53 µM
- TGI (NCI-H522 lung): 26.3 µM
- TGI (A549 NSCLC): > 100 µM
- TGI (MOLT-4 leukemia): 81.6 µM
- TGI (SK-MEL-28 melanoma): 23.3 µM
- TGI (COLO 205 colon): > 100 µM
- TGI (786-0 renal): > 100 µM
- TGI (BT-549 breast): 24.3 µM
- TGI (SR leukemia): 86.8 µM
- TGI (DU-145 prostate): 15.1 µM
- TGI (MALME-3M melanoma): 36.7 µM
- TGI (NCI/ADR-RES ovarian): > 100 µM
- TGI (EKVX NSCLC): 60 µM
- TGI (UO-31 renal): 33 µM
- TGI (SW-620 colon): > 100 µM
- TGI (OVCAR-8 ovarian): 31.9 µM
- TGI (SK-MEL-5 melanoma): 37.1 µM
- TGI (MCF7 breast): 34.5 µM
- TGI (IGROV1 ovarian): 37.6 µM
- TGI (MDA-MB-231 breast): 77.2 µM
- TGI (RPMI-8226 leukemia): > 100 µM
- TGI (KM12 colon): 55.6 µM
- TGI (SF-295 CNS): 47.5 µM
- TGI (HS 578T breast): > 100 µM
- TGI (CAKI-1 renal): 64.8 µM
- TGI (HCT-15 colon): > 100 µM
- TGI (T-47D breast): 30.5 µM
- TGI (UACC-257 melanoma): 37.7 µM
- TGI (A498 renal): 50.6 µM
- TGI (RXF 393 renal): 94.1 µM
- TGI (NCI-H460 lung): > 100 µM
- TGI (U251 CNS): > 100 µM
- TGI (K-562 leukemia): > 100 µM
- TGI (OVCAR-3 ovarian): > 100 µM
- TGI (PC-3 prostate): 50.8 µM
- TGI (HT29 colon): 23.9 µM
- TGI (UACC-62 melanoma): 21.6 µM
- TGI (SK-MEL-2 melanoma): 59.1 µM
- TGI (LOX IMVI melanoma): > 100 µM
- TGI (OVCAR-4 ovarian): 18.4 µM
- TGI (ACHN renal): 48.4 µM
- TGI (CCRF-CEM leukemia): > 100 µM
